Data published in patent publication US10233182B2, “Substituted spirocyclic inhibitors of autotaxin” (X-Rx, Inc., priority 2014, dated 2019).

The compounds below were run against Autotaxin (Homo sapiens (Human), UniProt Q13822) (assay: Autotaxin LPC Cascade Assay). Details: Autotaxin 5 nM, LPC 100 μM, choline oxidase/HRP/Ampliflu Red fluorescence read-out, 2% DMSO, RT; read-out: IC50 ATX Activity.
Format: biochemical
Protocol: Autotaxin LPC Cascade Assay:
HA130 and Test Compounds:
Prepare a 1 mM stock of HA130 and a 3 mM stock of each compound in 100% DMSO. Perform a 1:3 serial dilution in DMSO (transfer 5 l of compound to 10 l of DMSO). Add 240 l of buffer to generate a top working concentration of 40 µM (HA130) and 120 µM (test compound) in 4% DMSO.
Ampliflu Red—Prepare a stock of 5 mM from 100 mM in 100% DMSO. Further dilute to a working concentration of 400 μM in buffer (8% DMSO).
Together with compound this yields a 2% DMSO final concentration.
Choline Oxidase/HRP—0.8 U/mL CO and 8 U/mL HRP.
Incubate for 10 mins at RT. Add 5 µl of LPC and incubate for 1 hr on the plate shaker. Prepare the CO/HRP and AR immediately prior to use. Add 2.5 l of CO/HRP and follow with 2.5 l AR. Note order of addition, CO/HRP mix before AR. Read fluorescence intensity (ex/em: 530/590 nm) kinetically for 30 min at RT on the Tecan M1000.
For `CC(C)[C@@H](NC(=O)c1cc(C(F)(F)F)ccc1F)C(=O)N1CCC2(CC1)C(=O)N(C)C(=O)N2c1ccc2[nH]nnc2c1` [Example 32, (R)—N-(1-(1-(1H-Benzo[d][1,2,3]triazol-5-yl)-3-methyl-2,4-dioxo-1,3,8-triazaspiro [4.5]decan-8-yl)-3-methyl-1-oxobutan-2-yl)-2-fluoro-5-(trifluoromethyl)benzamide], the IC50 was less than 500 nM.
`CC(C)[C@@H](NC(=O)c1cccc(C(F)(F)F)c1)C(=O)N1CCC2(CC1)C(=O)N(C)C(=O)N2c1ccccc1` [Example 33, (R)—N-(3-Methyl-1-(3-methyl-2,4-dioxo-1-phenyl-1,3,8-triazaspiro[4.5]decan-8-yl)-1-oxobutan-2-yl)-3-(trifluoromethyl)benzamide] showed an IC50 of 500 to 1000 nM.
`CCc1cccc(C(=O)N[C@@H](C(=O)N2CCC3(CC2)C(=O)N(C)C(=O)N3c2ccccc2)C(C)C)c1F` [Example 34, (R)-3-Ethyl-2-fluoro-N-(3-methyl-1-(3-methyl-2,4-dioxo-1-phenyl-1,3,8-triazaspiro[4.5]decan-8-yl)-1-oxobutan-2-yl)benzamide] gave an IC50 of no less than 1000 nM.
`CC(C)[C@@H](NC(=O)c1ccc(Cl)c(Cl)c1)C(=O)N1CCC2(CC1)C(=O)N(C)C(=O)N2c1ccccc1` [Example 35, (R)-3,4-Dichloro-N-(3-methyl-1-(3-methyl-2,4-dioxo-1-phenyl-1,3,8-triazaspiro[4.5]decan-8-yl)-1-oxobutan-2-yl)benzamide] gave an IC50 of no less than 1000 nM.
For `CC(C)[C@@H](NC(=O)c1cc(Cl)ccc1Cl)C(=O)N1CCC2(CC1)C(=O)N(C)C(=O)N2c1ccccc1` [Example 36, (R)-2,5-Dichloro-N-(3-methyl-1-(3-methyl-2,4-dioxo-1-phenyl-1,3,8-triazaspiro[4.5]decan-8-yl)-1-oxobutan-2-yl)benzamide], the IC50 was no less than 1000 nM.
With `CCc1ccc(F)c(C(=O)N[C@@H](C(=O)N2CCC3(CC2)C(=O)N(C)C(=O)N3c2ccccc2)[C@H](C)OC)c1` [Example 37, 5-Ethyl-2-fluoro-N-((2R,3S)-3-methoxy-1-(3-methyl-2,4-dioxo-1-phenyl-1,3,8-triazaspiro[4.5]decan-8-yl)-1-oxobutan-2-yl)benzamide] the IC50 was less than 500 nM.
Work on `CCc1cc(F)cc(C(=O)N[C@@H](C(=O)N2CCC3(CC2)C(=O)N(C)C(=O)N3c2ccccc2)[C@H](C)OC)c1` [Example 38, 3-Ethyl-5-fluoro-N-((2R,3S)-3-methoxy-1-(3-methyl-2,4-dioxo-1-phenyl-1,3,8-triazaspiro[4.5]decan-8-yl)-1-oxobutan-2-yl)benzamide] yielded an IC50 of no less than 1000 nM.
With `CCc1ccc(F)c(C(=O)N[C@@H](C(=O)N2CCC3(CC2)C(=O)N(C)C(=O)N3c2ccccc2)C(C)C)c1` [Example 39, (R)-5-Ethyl-2-fluoro-N-(3-methyl-1-(3-methyl-2,4-dioxo-1-phenyl-1,3,8-triazaspiro[4.5]decan-8-yl)-1-oxobutan-2-yl)benzamide] the IC50 was less than 500 nM.
Compound `CCc1ccc(F)c(C(=O)N[C@@H](C(=O)N2CCC3(CC2)C(=O)N(C)C(=O)N3c2ccc(OC)cc2)[C@@H](C)OC)c1` [Example 40, 5-Ethyl-2-fluoro-N-((2R,3R)-3-methoxy-1-(1-(4-methoxyphenyl)-3-methyl-2,4-dioxo-1,3,8-triazaspiro[4.5]decan-8-yl)-1-oxobutan-2-yl)benzamide] has an IC50 of less than 500 nM.
With `CC[C@@H](C)[C@@H](NC(=O)c1cc(C)cc(F)c1)C(=O)N1CCC2(CC1)C(=O)N(C)C(=O)N2c1ccc(OC)cc1` [Example 41, 3-Fluoro-N-((2R,3R)-1-(1-(4-methoxyphenyl)-3-methyl-2,4-dioxo-1,3,8-triazaspiro[4.5]decan-8-yl)-3-methyl-1-oxopentan-2-yl)-5-methylbenzamide] the IC50 was less than 500 nM.
With `CC(C)[C@@H](NC(=O)c1cc(C2CC2)ccc1F)C(=O)N1CCC2(CC1)C(=O)N(C)C(=O)N2c1ccccc1` [Example 42, (R)-5-Cyclopropyl-2-fluoro-N-(3-methyl-1-(3-methyl-2,4-dioxo-1-phenyl-1,3,8-triazaspiro[4.5]decan-8-yl)-1-oxobutan-2-yl)benzamide] the IC50 was less than 500 nM.
Compound `CC(C)[C@@H](NC(=O)c1cc(Cl)ccc1F)C(=O)N1CCC2(CC1)C(=O)N(C)C(=O)N2c1ccccc1` [Example 43, (R)-5-Chloro-2-fluoro-N-(3-methyl-1-(3-methyl-2,4-dioxo-1-phenyl-1,3,8-triazaspiro[4.5]decan-8-yl)-1-oxobutan-2-yl)benzamide] has an IC50 of less than 500 nM.
`CC(C)[C@@H](NC(=O)c1cc(C(F)(F)F)ccc1F)C(=O)N1CCC2(CC1)C(=O)N(C)C(=O)N2c1ccccc1` [Example 44, (R)-2-Fluoro-N-(3-methyl-1-(3-methyl-2,4-dioxo-1-phenyl-1,3,8-triazaspiro[4.5]decan-8-yl)-1-oxobutan-2-yl)-5-(trifluoromethyl)benzamide] gave an IC50 of less than 500 nM.
With `COc1ccc(N2C(=O)N(C)C(=O)C23CCN(C(=O)[C@H](NC(=O)c2cc(C4CC4)ccc2F)C(C)C)CC3)cc1` [Example 45, (R)-5-Cyclopropyl-2-fluoro-N-(1-(1-(4-methoxyphenyl)-3-methyl-2,4-dioxo-1,3,8-triazaspiro[4.5]decan-8-yl)-3-methyl-1-oxobutan-2-yl)benzamide] the IC50 was less than 500 nM.
`CCc1cccc(C(=O)N[C@@H](C(=O)N2CCC3(CC2)C(=O)N(C)C(=O)N3c2ccccc2)C(C)C)c1` [Example 46, (R)-3-Ethyl-N-(3-methyl-1-(3-methyl-2,4-dioxo-1-phenyl-1,3,8-triazaspiro[4.5]decan-8-yl)-1-oxobutan-2-yl)benzamide] was tested, and the IC50 was 500 to 1000 nM.
Work on `CCc1cc(F)cc(C(=O)N[C@@H](C(=O)N2CCC3(CC2)C(=O)N(C)C(=O)N3c2ccccc2)C(C)C)c1` [Example 47, (R)-3-Ethyl-5-fluoro-N-(3-methyl-1-(3-methyl-2,4-dioxo-1-phenyl-1,3,8-triazaspiro[4.5]decan-8-yl)-1-oxobutan-2-yl)benzamide] yielded an IC50 of 500 to 1000 nM.
Work on `CC(C)[C@@H](NC(=O)c1cc(Cl)cc(Cl)c1)C(=O)N1CCC2(CC1)C(=O)N(C)C(=O)N2c1ccccc1` [Example 48, (R)-3,5-Dichloro-N-(3-methyl-1-(3-methyl-2,4-dioxo-1-phenyl-1,3,8-triazaspiro[4.5]decan-8-yl)-1-oxobutan-2-yl)benzamide] yielded an IC50 of less than 500 nM.
With `COc1ccc(N2C(=O)N(C)C(=O)C23CCN(C(=O)[C@H](NC(=O)c2cc(C4CC4)ccc2F)[C@@H](C)OC)CC3)cc1` [Example 49, 5-Cyclopropyl-2-fluoro-N-((2R,3R)-3-methoxy-1-(1-(4-methoxyphenyl)-3-methyl-2,4-dioxo-1,3,8-triazaspiro[4.5]decan-8-yl)-1-oxobutan-2-yl)benzamide] the IC50 was less than 500 nM.
`CCc1ccc(F)c(C(=O)N[C@@H](C(=O)N2CCC3(CC2)C(=O)N(C)C(=O)N3c2ccc(OC)cc2)C(C)C)c1` [Example 50, (R)-5-Ethyl-2-fluoro-N-(1-(1-(4-methoxyphenyl)-3-methyl-2,4-dioxo-1,3,8-triazaspiro[4.5]decan-8-yl)-3-methyl-1-oxobutan-2-yl)benzamide] was tested, and the IC50 was less than 500 nM.
In the case of `COc1ccc(N2C(=O)N(C)C(=O)C23CCN(C(=O)[C@H](NC(=O)c2cc(C(F)(F)F)ccc2F)C(C)C)CC3)cc1` [Example 51, (R)-2-Fluoro-N-(1-(1-(4-methoxyphenyl)-3-methyl-2,4-dioxo-1,3,8-triazaspiro[4.5]decan-8-yl)-3-methyl-1-oxobutan-2-yl)-5-(trifluoromethyl)benzamide], the IC50 is reported as less than 500 nM.
`CC(C)[C@@H](NC(=O)c1cc(C(F)(F)F)ccc1F)C(=O)N1CCC2(CC1)C(=O)N(C)C(=O)N2c1ccc2[nH]ncc2c1` [Example 52, (R)—N-(1-(1-(1H-indazol-5-yl)-3-methyl-2,4-dioxo-1,3,8-triazaspiro[4.5]decan-8-yl)-3-methyl-1-oxobutan-2-yl)-2-fluoro-5-(trifluoromethyl)benzamide] was tested, and the IC50 was less than 500 nM.
Work on `CC(C)[C@@H](NC(=O)c1cc(C(F)(F)F)ccc1F)C(=O)N1CCC2(CC1)C(=O)N(C)C(=O)N2c1ccc2cn[nH]c2c1` [Example 53, (R)—N-(1-(1-(1H-Indazol-6-yl)-3-methyl-2,4-dioxo-1,3,8-triazaspiro[4.5]decan-8-yl)-3-methyl-1-oxobutan-2-yl)-2-fluoro-5-(trifluoromethyl)benzamide] yielded an IC50 of no less than 1000 nM.
With `CC(C)[C@@H](NC(=O)c1cc(C2CC2)ccc1F)C(=O)N1CCC2(CC1)C(=O)N(C)C(=O)N2c1ccc2[nH]ncc2c1` [Example 54, (R)—N-(1-(1-(1H-Indazol-5-yl)-3-methyl-2,4-dioxo-1,3,8-triazaspiro[4.5]decan-8-yl)-3-methyl-1-oxobutan-2-yl)-5-cyclopropyl-2-fluorobenzamide] the IC50 was less than 500 nM.
Compound `CCc1ccc(F)c(C(=O)N[C@@H](C(=O)N2CCC3(CC2)C(=O)N(C)C(=O)N3c2ccc3[nH]ncc3c2)C(C)C)c1` [Example 55, (R)—N-(1-(1-(1H-Indazol-5-yl)-3-methyl-2,4-dioxo-1,3,8-triazaspiro[4.5]decan-8-yl)-3-methyl-1-oxobutan-2-yl)-5-ethyl-2-fluorobenzamide] has an IC50 of less than 500 nM.
`Cc1ccc(F)c(C(=O)N[C@@H](C(=O)N2CCC3(CC2)C(=O)N(C)C(=O)N3c2ccc3[nH]ncc3c2)C(C)C)c1` [Example 56, (R)—N-(1-(1-(1H-Indazol-5-yl)-3-methyl-2,4-dioxo-1,3,8-triazaspiro[4.5]decan-8-yl)-3-methyl-1-oxobutan-2-yl)-2-fluoro-5-methylbenzamide] was tested, and the IC50 was less than 500 nM.
